Consider one substance from paper PMC7300217, “Surfactin Like Broad Spectrum Antimicrobial Lipopeptide Co-produced With Sublancin From Bacillus subtilis Strain A52: Dual Reservoir of Bioactives” (Frontiers in Microbiology, 2020).

One series has as its system C. glabrata MTCC 3019. The series is described as follows: MIC, microtiter plate dilution assay. The conditions noted are these: 5 × 10^5 CFU/ml, 37°C, OD600 after 48 h, triplicate. Type of series: cell-based. On the procedure:
(§1) The antimicrobial activity was tested by well diffusion assay as mentioned earlier ([Singh et al., 2014]). Strain A52 was grown for 24 h in 500 ml of nutrient broth (NB, Hi-media, India) using 1000 ml flask and subsequently cells were removed by centrifugation (10,000 rpm for 15 min at 4°C). Supernatant was filtered through 0.22 μm filter (Millipore, United States) to obtain cell-free fermented broth (CFB) that was used for antimicrobial assay (50 μl) against various indicator strains and the activity was measured as diameter of inhibition zone. Test strains used were Staphylococcus aureus (MTCC 1430), Bacillus subtilis (MTCC 121), B. firmus (MTCC 488), B. licheniformis (MTCC 429), B. thuringiensis (MTCC 1953), Escherichia coli (MTCC 1610), Micrococcus luteus (MTCC 106), Steptococcus pyrogens (MTCC 1928), S. anginosus (MTCC 1929), S. oralis (MTCC 2696), S. mutans (MTCC 497), Candida albicans (MTCC 1637), C. albicans (MTCC 183), C. albicans (MTCC 227), C. tropicalis (MTCC 184), C. glabrata (MTCC 3019), C. haemulonii (MTCC 2766), and C. inconsplicue (MTCC 1074). The phytopathogenic fungi employed in this study were Alternaria brassicicola (MTCC 2102), Colletotrichum acutatum (MTCC 1037), and Fusarium moniliforme (MTCC 158). Clinical isolates of Candida were provided by National Culture Collection of Pathogenic Fungi (NCCPF), PGIMER, Chandigarh, India.
(§2) The minimum inhibitory concentration (MIC) of HPLC purified peptides was evaluated by using microtiter plate dilution assay. The peptide concentration was estimated using BCA protein assay (Thermo Fisher Scientific, United States) method as described by manufacturer. Actively growing test strains (5 × 10^5 CFU/ml) were inoculated in a 96-well plate with different concentrations of the peptides and plates were incubated for 24–48 h at 37°C (final volume in each well is 200 μl). OD was measured at 600 nm after 24 and 48 h for bacteria and yeast, respectively, using ELISA microplate reader (Thermo, United States). MIC against phytopathogenic fungi was determined using 96-well microtiter plate assay ([Kaur et al., 2016]). In 96-well microplates, 100 μl of fungal spore suspension (1 × 10^5 spores/ml) prepared in potato dextrose broth (PDB, Hi-media, India) was mixed with100 μl of fresh PDB containing different concentrations of lipopeptide. Control well contained 100 μl of fungal spore suspension and 100 μl of only medium. The microplates were incubated at 25°C and readings were recorded at 600 nm after 48 h. The lowest concentration showing no growth was considered as MIC. Each test was done in triplicate and optical density (OD600) of peptide treated wells were compared with uninoculated wells (blank medium control).

Series [1] concerns C. aurius 470126 (clinical isolate). The series is described as follows: MIC, microtiter plate dilution assay. The format is cell-based. The conditions noted are these: 5 × 10^5 CFU/ml, 37°C, OD600 after 48 h, triplicate. The protocol:
as §1, §2

Series [2] deals with C. tropicalis 420024 (clinical isolate). Put plainly: MIC, microtiter plate dilution assay. The format is cell-based. The following applies: 5 × 10^5 CFU/ml, 37°C, OD600 after 48 h, triplicate. On the procedure: as §1, §2
The test system of a further series is S. anginosus MTCC1929. The series is described as follows: MIC, microtiter plate dilution assay. Type of series: cell-based. The conditions noted are these: 5 × 10^5 CFU/ml, 37°C, OD600 after 24 h, triplicate. The protocol:
as §1, §2

Series [3] deals with C. krusei 440009 (clinical isolate). The series is described as follows: MIC, microtiter plate dilution assay. The format is cell-based. The conditions noted are these: 5 × 10^5 CFU/ml, 37°C, OD600 after 48 h, triplicate. The protocol:
as §1, §2

Series [4] has as its system C. kefyr 410004 (clinical isolate). The series is described as follows: MIC, microtiter plate dilution assay. Type of series: cell-based. The conditions noted are these: 5 × 10^5 CFU/ml, 37°C, OD600 after 48 h, triplicate. The protocol: as §1, §2
Series [5] can be described thus: Temperature sensitivity, residual antimicrobial activity. Type of series: physicochemical. The conditions noted are these: residual antimicrobial activity by well diffusion assay at RT; for Residual activity (%), temperature 100 ºC: 100 °C. On the procedure:
(§3) Sensitivity of purified peptides toward temperature, pH, and non-specific proteases was confirmed by performing bioassays. The pH stability was determined by adjusting the pH 2.0–12.0 of peptide aliquots (using 10 mM HCl or NaOH) and incubating for 4 h at room temperature. Samples were neutralized to pH 7.0 before processing for antimicrobial assay. To determine temperature susceptibility, peptides were incubated at different temperatures ranging from 37 to 100°C for 1 h and 121°C for 15 min and residual antimicrobial activity was determined at RT by well diffusion assay. Proteolytic enzymes trypsin and proteinase K (Sigma, United States) were used at three different concentrations (0.1, 1.0, and 5.0 mg/ml) to observe their effect on the peptide. The enzyme solutions were prepared in 50 mM phosphate buffer (pH 7.0). All reactions were performed at 37°C for 6 h followed by deactivation of enzyme by heating the solution in boiling water for 5 min before performing the activity assay.

For another series, the system named is rabbit blood cells. The series is described as follows: Hemolysis assay. Type of series: cell-based, New Zealand white rabbit. The protocol:
For hemolysis assay blood was collected from New Zealand white rabbit, centrifuged, washed three times, and resuspended in phosphate-buffered saline (PBS). Cells were counted using hemocytometer (adjusted to 2 × 10^8 cells/ml) and treated with different concentrations of peptides (between 10 and 200 μg/ml). They were incubated in a CO2 incubator for 24 h at 37°C and processed to observe release of hemoglobin as described earlier ([Singh et al., 2014]). PBS and 0.1% Triton X-100 were used as agents for 0 and 100% hemolysis, respectively.

A short description of series [6]: Collapse drop assay (CDA). The format is physicochemical. The following applies: 5 μl of peptide (10 μg/ml) on mineral oil, observed after 1 min. On the procedure: The surfactant property of peptide was determined using the qualitative drop-collapse assay ([Youssef et al., 2004]). Mineral oil (2 μl) was added to 96-well microtiter plate and equilibrated for 24 h at 37°C. After equilibration 5 μl of purified peptides (10 μg/ml) were added to the surface of the oil and drop shape was observed after 1 min using magnifying glass. Triton X-100 and water were used as positive and negative control, respectively.

Another series has as its system M. luteus MTCC 106. Put plainly: MIC, microtiter plate dilution assay. The following applies: 5 × 10^5 CFU/ml, 37°C, OD600 after 24 h, triplicate. Type of series: cell-based, Micrococcus luteus. The protocol:
(§4) The antimicrobial activity was tested by well diffusion assay as mentioned earlier ([Singh et al., 2014]). Strain A52 was grown for 24 h in 500 ml of nutrient broth (NB, Hi-media, India) using 1000 ml flask and subsequently cells were removed by centrifugation (10,000 rpm for 15 min at 4°C). Supernatant was filtered through 0.22 μm filter (Millipore, United States) to obtain cell-free fermented broth (CFB) that was used for antimicrobial assay (50 μl) against various indicator strains and the activity was measured as diameter of inhibition zone. […]
(§5) The minimum inhibitory concentration (MIC) of HPLC purified peptides was evaluated by using microtiter plate dilution assay. […] OD was measured at 600 nm after 24 and 48 h for bacteria and yeast, respectively, using ELISA microplate reader (Thermo, United States). MIC against phytopathogenic fungi was determined using 96-well microtiter plate assay ([Kaur et al., 2016]). […] The microplates were incubated at 25°C and readings were recorded at 600 nm after 48 h. […]

The next series concerns B. coagulans MTCC 492. Put plainly: MIC, microtiter plate dilution assay. Type of series: cell-based. The conditions noted are these: 5 × 10^5 CFU/ml, 37°C, OD600 after 24 h, triplicate. The protocol:
as §2

The subject of the next series is B. cereus MTCC 430. The series is described as follows: MIC, microtiter plate dilution assay. The format is cell-based. The following applies: 5 × 10^5 CFU/ml, 37°C, OD600 after 24 h, triplicate. The protocol:
as §2

For another series, the target named is T1, proteinase K (Parengyodontium album, UniProt P06873).
T1 construct: purchased Sigma, United States
The series is described as follows: Sensitivity to proteolytic enzyme, residual antimicrobial activity. The format is in vitro ADME. The following applies: 6h/ 37°C, enzyme 0.1, 1.0 and 5.0 mg/ml in 50 mM phosphate buffer pH 7.0, enzyme deactivated in boiling water 5 min. The protocol: as §3

Another series deals with B. subtilis MTCC 121. The series is described as follows: MIC, microtiter plate dilution assay. The format is cell-based, Bacillus subtilis. The following applies: 5 × 10^5 CFU/ml, 37°C, OD600 after 24 h, triplicate. On the procedure: as §4, §5

T1 sequence (P06873 106-384): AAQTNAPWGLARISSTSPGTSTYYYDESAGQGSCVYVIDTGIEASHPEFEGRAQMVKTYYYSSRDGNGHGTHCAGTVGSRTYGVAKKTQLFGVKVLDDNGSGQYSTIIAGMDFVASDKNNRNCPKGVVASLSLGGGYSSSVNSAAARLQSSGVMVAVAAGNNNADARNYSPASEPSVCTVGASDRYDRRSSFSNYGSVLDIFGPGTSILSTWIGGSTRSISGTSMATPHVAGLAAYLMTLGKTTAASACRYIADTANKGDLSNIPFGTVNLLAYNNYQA

For “Glu^1-Leu/Ile^2-Leu^3-Val^4-Asp^5-Leu^6-Leu/Ile^7 and a β-OH hexadecane fatty acid chain (lariat or depsi) [Lipopeptide A52, cyclic surfactin-like lipopeptide, 7 amino acids and C16 β-hydroxy fatty acid, 1061.9 Da, from B. subtilis strain A52]”, the “MIC value, C. glabrata MTCC 3019” value against C. glabrata MTCC 3019 amounted to 16 µg/mL. Also, in series [1], the “MIC value, C. aurius 470126” value was 26 µg/mL. For the same substance, the “MIC value, C. tropicalis 420024” value in [2] came out at 28 µg/mL. Further, in the series with S. anginosus MTCC1929, the “MIC value, S. anginosus MTCC1929” value is 4 µg/mL. For the same substance, the “MIC value, C. krusei 440009” value in series [3] was determined as 12 µg/mL. For the same substance, the “MIC value, C. kefyr 410004” value in [4] turned out to be 26 µg/mL. Moreover, the “Residual activity (%), temperature 37 ºC” value in series [5] (37 °C, 1h) came to 100%. For the same substance, the “Residual activity (%), temperature 50 ºC” value in series [5] (50 °C, 1h) amounted to 100%. Further, the “Residual activity (%), temperature 60 ºC” value in [5] (60 °C, 1h) stood at 100%. Besides, the “Residual activity (%), temperature 70 ºC” value in series [5] (70 °C, 1h) stood at 100%. In series [5] (80 °C, 1h), the “Residual activity (%), temperature 80 ºC” value is recorded as 100%. Further, the “Residual activity (%), temperature 100 ºC” value was 100% in [5] (1h, listed as Lipopeptide) and “not affected” in [5] (1h, listed as surfactin-like lipopeptide). In [5] (121 °C, 15 min (15 lbs)), the “Residual activity (%), temperature 121 ºC (autoclaving)” value amounted to 89.0%. In addition, the hemolytic activity result with rabbit blood cells was “demonstrated hemolytic activity”. Moreover, the “drop collapse (surfactant property)” value in series [6] is given as “positive”. In the series on M. luteus MTCC 106, the “MIC value, M. luteus MTCC 106” value was 1 µg/mL. Moreover, the “MIC value, B. coagulans MTCC 492” value in the series on B. coagulans MTCC 492 was found to be 2 µg/mL. Moreover, the “MIC value, B. cereus MTCC 430” value in the series with B. cereus MTCC 430 amounted to 2 µg/mL. Besides, on proteinase K, the “Residual activity (%), Proteinase k” value is 100%. Also, the “MIC value, B. subtilis MTCC 121” value in the series on B. subtilis MTCC 121 amounted to 2 µg/mL.
